Measured values taken from PMC11219945, “Assessing genotoxic effects of chemotherapy agents by a robust in vitro assay based on mass spectrometric quantification of γ-H2AX in HepG2 cells” (Frontiers in Pharmacology, 2024).
Where a name gives a salt, the structure may show the parent alone.

Tests used:
γ-H2AX in HepG2 cells [1] = assay: γ-H2AX MS assay, dose-effect relationship in HepG2 cells; conditions: for Genotoxicity in γ-H2AX MS assay: tested concentration 1 mM
Description: Human hepatoblastoma cells (HepG2) were cultivated in DMEM medium under standard conditions (37°C in a 5% CO2 atmosphere). The culturing medium was added with 10% FBS, 100 U/mL penicillin and 100 μg/mL streptomycin.
In accordance to our previous study, cells were exposed to the chemotherapeutic agent by adding a proper volume of chemotherapeutic agent stock solution to the fresh medium without serum. Controls were treated with DMSO (0.1%) in medium. Independent biological experiments with three technical replicates were conducted.
The cells were then treated with different chemotherapy agents in serum-free medium. For a dose-effect relationship experiment, cells were exposed to each agent at either of three concentrations with a 10-fold increase for 24 h. For the time-effect relationship experiment of nine tested chemotherapy agents, cells were exposed to selected chemotherapy agents at 0.5, 1, 2, 4, 8, 12, and 24 h, with the concentration of 100 μM. Independent biological experiments with three technical replicates were performed.
(§1) The quantification of γ-H2AX was carried out according to the previous report ([Qu et al., 2021]). In short, the cell clumps were collected after a certain period of cell culture and histones were obtained by acid extraction. After nuclear isolation, histone extraction, trypsin digestion in the solution, and desalting, the peptide sample from the carboxy terminus of H2AX was analyzed. LC–MS/MS analysis was conducted using a QTRAP 5500 (AB Sciex, Framingham, United States) with an ACQUITY UPLC system (Waters Co., Manchester, United Kingdom). Chromatographic separation was carried out with an ACQUITY UPLC BEH C18 column (100 mm × 2.1 mm, 1.7 μm). The column temperature was maintained at 40°C. A 10 μL sample aliquot was injected for analysis. Mobile phases A and B were 0.1% FA in distilled H2O and acetonitrile, respectively. […] The eluent composition was maintained for 2 min, after which the system returned to 1% B and was re-equilibrated for 2 min. The eluates in the first 1 min were switched to waste to prevent contaminating the ion source. The electrospray ionization source was operated in positive mode using nitrogen as the nebulizing gas. All experiments were performed independently in at least triplicate.
To this end, we firstly examined the cytotoxicity of 34 chemotherapy agents, all of which were already well classified in terms of diverse characteristics. These tested chemotherapy agents were serially diluted for exposure to check the effects on cell viability.

[2] = combination of in vitro mouse lymphoma, chromosomal aberration, and micronucleus tests; cited from earlier work
γ-H2AX in HepG2 cells [3] = assay: γ-H2AX time-effect relationship / DNA repair kinetics (k, t50) in HepG2 cells; assay type: cell-based, Human; set-up: k (speed of γ-H2AX descending): unit not given here; conditions: 100 μM, 0.5–8 h time-dependent kinetics
Description: The cells were then treated with different chemotherapy agents in serum-free medium. […] Independent biological experiments with three technical replicates were performed.
as §1, with “In” for “The quantification of γ-H2AX was carried out according to the previous report ([Qu et al., 2021]). In”
Here, we estimated k and t50 after exposure to nine representative chemotherapy agents based on the 0.5–8 h γ-H2AX time-dependent kinetics (Figure 5) and then obtained these parameters to describe each agent DSB repair capacity using the functions optim and optimize in R language.

CC/C(=C(\c1ccccc1)c1ccc(OCCN(C)C)cc1)c1ccccc1 [Tamoxifen]
maximum γ-H2AX value within the selected concentration range (γ-H2AX in HepG2 cells [1]; human, 24 h): 3.1
In vitro assays (genotoxicity) [2]: −

Cc1ncc(CNC(=O)N(CCCl)N=O)c(N)n1 [Nimustine]
γ-H2AX MEC/MS (minimum effective concentration) (γ-H2AX in HepG2 cells [1]; HepG2 cells, 24 h exposure): ↑(0.01) µM
γ-H2AX MEC/MS (minimum effective concentration) (γ-H2AX in HepG2 cells [1]; HepG2 cells, 24 h exposure, listed as nimustine): 0.01 µM
k (speed of γ-H2AX descending) (γ-H2AX in HepG2 cells [3]): 0.160
t50 (time required for γ-H2AX to drop to half of the maximum value) (γ-H2AX in HepG2 cells [3]): 2.465 h

O=P1(NCCCl)OCCCN1CCCl (centres unmarked) [Ifosfamide]
γ-H2AX MEC/MS (minimum effective concentration) (γ-H2AX in HepG2 cells [1]; HepG2 cells, 24 h exposure): ↑(1000) µM

N.N.O=C([O-])C1(C(=O)[O-])CCC1.[Pt+2] [Carboplatin]
maximum γ-H2AX value within the selected concentration range (γ-H2AX in HepG2 cells [1]; HepG2 cells, 24 h): 7.2
γ-H2AX MEC/MS (minimum effective concentration) (γ-H2AX in HepG2 cells [1]; HepG2 cells, 24 h exposure): ↑(100) µM
γ-H2AX MEC/MS (minimum effective concentration) (γ-H2AX in HepG2 cells [1]; HepG2 cells, 24 h exposure, listed as carboplatin): 100 µM
In vitro assays (genotoxicity) [2]: +

Nc1nc2nc[nH]c2c(=S)[nH]1 [Thioguanine]
maximum γ-H2AX value within the selected concentration range (γ-H2AX in HepG2 cells [1]; human, 24 h): 6.6
In vitro assays (genotoxicity) [2]: +

O=C1c2c(O)ccc(O)c2C(=O)c2c(NCCNCCO)ccc(NCCNCCO)c21 [Mitoxantrone]
k (speed of γ-H2AX descending) (γ-H2AX in HepG2 cells [3]): 0.111
t50 (time required for γ-H2AX to drop to half of the maximum value) (γ-H2AX in HepG2 cells [3]): 7.999 h
In vitro assays (genotoxicity) [2]: +

Sc1ncnc2nc[nH]c12 [6-mercaptopurine]
maximum γ-H2AX value within the selected concentration range (γ-H2AX in HepG2 cells [1]; human, 24 h): 5.82
In vitro assays (genotoxicity) [2]: +

CC(=O)O[C@H]1C(=O)[C@@]2(C)[C@H]([C@H](OC(=O)c3ccccc3)[C@]3(O)C[C@H](OC(=O)[C@H](O)[C@@H](NC(=O)c4ccccc4)c4ccccc4)C(C)=C1C3(C)C)[C@]1(OC(C)=O)CO[C@@H]1C[C@@H]2O [Paclitaxel]
Variation of γ-H2AX (γ-H2AX in HepG2 cells [1]; human, 24 h): no variations of γ-H2AX

COc1cccc2c1C(=O)c1c(O)c3c(c(O)c1C2=O)C[C@@](O)(C(=O)CO)C[C@@H]3O[C@H]1C[C@H](N)[C@@H](O)[C@H](C)O1 [Epirubicin hydrochloride]
maximum γ-H2AX value within the selected concentration range (γ-H2AX in HepG2 cells [1]; human, 24 h): 18
γ-H2AX MEC/MS (minimum effective concentration) (γ-H2AX in HepG2 cells [1]; human, 24 h): 0.01 µM
In vitro assays (genotoxicity) [2]: +

CCCCCCNC(=O)n1cc(F)c(=O)[nH]c1=O [Carmofur]
maximum γ-H2AX value within the selected concentration range (γ-H2AX in HepG2 cells [1]; human, 24 h): 6.3
In vitro assays (genotoxicity) [2]: +

CC[C@@]1(O)C(=O)OCc2c1cc1n(c2=O)Cc2c-1nc1cc(F)c(C)c3c1c2[C@@H](N)CC3 [Exatecan]
maximum γ-H2AX value within the selected concentration range (γ-H2AX in HepG2 cells [1]; human, 24 h): 19.2
k (speed of γ-H2AX descending) (γ-H2AX in HepG2 cells [3]): 0.114
t50 (time required for γ-H2AX to drop to half of the maximum value) (γ-H2AX in HepG2 cells [3]): 3.925 h
In vitro assays (genotoxicity) [2]: +

O=C1[O][Pt]2([NH][C@@H]3CCCC[C@H]3[NH]2)[O]C1=O [Oxaliplatin]
maximum γ-H2AX value within the selected concentration range (γ-H2AX in HepG2 cells [1]; HepG2 cells, 24 h): 7.51
γ-H2AX MEC/MS (minimum effective concentration) (γ-H2AX in HepG2 cells [1]; HepG2 cells, 24 h exposure): ↑(100) µM
γ-H2AX MEC/MS (minimum effective concentration) (γ-H2AX in HepG2 cells [1]; HepG2 cells, 24 h exposure, listed as oxaliplatin): 100 µM
In vitro assays (genotoxicity) [2]: +

CN(C)/N=N/c1[nH]cnc1C(N)=O [Dacarbazine]
maximum γ-H2AX value within the selected concentration range (γ-H2AX in HepG2 cells [1]; human, 24 h): 5.8
In vitro assays (genotoxicity) [2]: +

O=NN(CCCl)C(=O)NCCCl [Carmustine]
γ-H2AX MEC/MS (minimum effective concentration) (γ-H2AX in HepG2 cells [1]; HepG2 cells, 24 h exposure): ↑(0.01) µM
γ-H2AX MEC/MS (minimum effective concentration) (γ-H2AX in HepG2 cells [1]; HepG2 cells, 24 h exposure, listed as carmustine): 0.01 µM
k (speed of γ-H2AX descending) (γ-H2AX in HepG2 cells [3]): 0.169
t50 (time required for γ-H2AX to drop to half of the maximum value) (γ-H2AX in HepG2 cells [3]): 2.298 h

C[C@]12CCC(=O)C(O)=C1CC[C@@H]1[C@@H]2CC[C@]2(C)C(=O)CC[C@@H]12 [Formestane]
maximum γ-H2AX value within the selected concentration range (γ-H2AX in HepG2 cells [1]; HepG2 cells, 24 h): 3.2
Genotoxicity in γ-H2AX MS assay (γ-H2AX in HepG2 cells [1]; HepG2 cells, 24 h): none of the selected antitumor hormones exhibited genotoxicity
In vitro assays (genotoxicity) [2]: −

O=c1[nH]cc(F)c(=O)[nH]1 [5-fluorouracil]
maximum γ-H2AX value within the selected concentration range (γ-H2AX in HepG2 cells [1]; human, 24 h): 5.2
In vitro assays (genotoxicity) [2]: +

N#Cc1ccc(C(c2ccc(C#N)cc2)n2cncn2)cc1 [Letrozole]
maximum γ-H2AX value within the selected concentration range (γ-H2AX in HepG2 cells [1]; human, 24 h): 3.1
In vitro assays (genotoxicity) [2]: −

CC[C@]1(O)C[C@H]2CN(CCc3c([nH]c4ccccc34)[C@@](C(=O)OC)(c3cc4c(cc3OC)N(C=O)[C@H]3[C@@](O)(C(=O)OC)[C@H](OC(C)=O)[C@]5(CC)C=CCN6CC[C@]43[C@@H]65)C2)C1 [Vincristine]
Variation of γ-H2AX (γ-H2AX in HepG2 cells [1]; human, 24 h): no variations of γ-H2AX
maximum γ-H2AX value within the selected concentration range (γ-H2AX in HepG2 cells [1]; human, 24 h): 3

C=C1C[C@@H]2[C@H](CC[C@]3(C)C(=O)CC[C@@H]23)[C@@]2(C)C=CC(=O)C=C12 [Exemestane]
maximum γ-H2AX value within the selected concentration range (γ-H2AX in HepG2 cells [1]; human, 24 h): 3.1
In vitro assays (genotoxicity) [2]: −

CC[C@@]1(O)C(=O)OCc2c1cc1n(c2=O)Cc2cc3c(CN(C)C)c(O)ccc3nc2-1 [Topotecan]
maximum γ-H2AX value within the selected concentration range (γ-H2AX in HepG2 cells [1]; human, 24 h): 18.4
k (speed of γ-H2AX descending) (γ-H2AX in HepG2 cells [3]): 0.132
t50 (time required for γ-H2AX to drop to half of the maximum value) (γ-H2AX in HepG2 cells [3]): 3.545 h
In vitro assays (genotoxicity) [2]: +

CC(C)(C#N)c1cc(Cn2cncn2)cc(C(C)(C)C#N)c1 [Anastrozole]
In vitro assays (genotoxicity) [2]: −

O=P1(N(CCCl)CCCl)NCCCO1 (centres unmarked) [Cyclophosphamide]
maximum γ-H2AX value within the selected concentration range (γ-H2AX in HepG2 cells [1]; HepG2 cells, 24 h): 7.4
Genotoxicity in γ-H2AX MS assay (γ-H2AX in HepG2 cells [1]; HepG2 cells, 24 h): genotoxic
γ-H2AX MEC/MS (minimum effective concentration) (γ-H2AX in HepG2 cells [1]; HepG2 cells, 24 h exposure): ↑(1000) µM
In vitro assays (genotoxicity) [2]: +

CCC1(c2ccc(N)cc2)CCC(=O)NC1=O (centres unmarked) [Aminoglutethimide]
maximum γ-H2AX value within the selected concentration range (γ-H2AX in HepG2 cells [1]; human, 24 h): 2.9
In vitro assays (genotoxicity) [2]: −

CCC1=C[C@@H]2CN(C1)Cc1c([nH]c3ccccc13)[C@@](C(=O)OC)(c1cc3c(cc1OC)N(C)[C@H]1[C@@](O)(C(=O)OC)[C@H](OC(C)=O)[C@]4(CC)C=CCN5CC[C@]31[C@@H]54)C2 [Vinorelbine]
Variation of γ-H2AX (γ-H2AX in HepG2 cells [1]; human, 24 h): no variations of γ-H2AX
maximum γ-H2AX value within the selected concentration range (γ-H2AX in HepG2 cells [1]; human, 24 h): 3.3

COc1cccc2c1C(=O)c1c(O)c3c(c(O)c1C2=O)C[C@@](O)(C(=O)CO)C[C@@H]3O[C@H]1C[C@H](N)[C@H](O[C@@H]2CCCCO2)[C@H](C)O1 [Pirarubicin]
maximum γ-H2AX value within the selected concentration range (γ-H2AX in HepG2 cells [1]; HepG2 cells, 24 h): 22
γ-H2AX MEC/MS (minimum effective concentration) (γ-H2AX in HepG2 cells [1]; HepG2 cells, 24 h exposure): ↑(0.01) µM
γ-H2AX MEC/MS (minimum effective concentration) (γ-H2AX in HepG2 cells [1]; HepG2 cells, 24 h exposure, listed as pirarubicin): 0.01 µM
In vitro assays (genotoxicity) [2]: +

COc1cc([C@@H]2c3cc4c(cc3[C@@H](O[C@@H]3O[C@@H]5CO[C@@H](C)O[C@H]5[C@H](O)[C@H]3O)[C@H]3COC(=O)[C@H]23)OCO4)cc(OC)c1O [Etoposide]
In vitro assays (genotoxicity) [2]: +

NC(=O)NO [Hydroxyurea]
MEC in γ-H2AX MS assay (γ-H2AX in HepG2 cells [1]): 1 mM
In vitro assays (genotoxicity) [2]: +

COc1cc([C@@H]2c3cc4c(cc3[C@@H](O[C@@H]3O[C@@H]5CO[C@@H](c6cccs6)O[C@H]5[C@H](O)[C@H]3O)[C@H]3COC(=O)[C@H]23)OCO4)cc(OC)c1O [Teniposide]
maximum γ-H2AX value within the selected concentration range (γ-H2AX in HepG2 cells [1]; human, 24 h): 13.2
In vitro assays (genotoxicity) [2]: +
